Source: patent US20240082192A1, “TOPICAL F[…] PREGABALIN” (EGIS GYÓGYSZERGYÁR ZRT., priority 2021, published 2024)

Experiments:
[1] = Pharmacokinetic studies, blood level of pregabalin after oral or topical administration
[2] = test system: human patient; conditions: same aqueous solution; cited from earlier work
[3] = test system: Wistar rats; assay: Chronic constriction injury (CCI) rat model of neuropathy, paw withdrawal threshold with electronic von Frey device; assay type: in vivo; conditions: 16.66 mg/kg
Description: Furthermore, based on the article Bennett G J, at al (Pain., A peripheral mononeuropathy in rat that produces disorders of pain sensation like those seen in man. 1988 April; 33(1):87-107) we have developed a method for the examination of the compositions of the present invention. Thus, we have examined the compositions according to the present invention also with a different model for measuring the alleviation of the peripheral neuropathic pain also. Namely, we have carried out examinations on rats using Chronic constriction injury (CCI) model. Three weeks following nerve injury rats were assessed for hind paw mechanical withdrawal thresholds. The paw withdrawal threshold (PWT) was determined with an Electronic von Frey device according to the modified up-down method of Dixon (Efficient analysis of experimental observations., Annu Rev Pharmacol Toxicol. 1980; 20:441-62). […] The method and results are shown in example 3 and on FIG. 9.
Thus, the compositions of the present invention are effective in the treatment of neuropathic pain. […]
Briefly, under isoflurane anesthesia small blunt dissection was made into the skin of rat right thigh then three loosely constrictive ligatures were placed around common sciatic nerve (chronic constriction injury CCI). Three weeks following nerve injury rats were assessed for hind paw mechanical withdrawal thresholds. […]

[4] = test system: Mouse; conditions: topical 2.5% aqueous solution without other ingredients; cited from earlier work
[5] = compositions containing 1 and 3% of pregabalin; cited from earlier work

## CC(C)C[C@H](CN)CC(=O)O [pregabalin]
[1]
  amount entering the bloodstream during topical treatment: very small amounts
[2]
  duration of reduction of neuropathic pain: 6 h
[3]
  reduction of hypersensitivity after oral administration: not able to reduce hypersensitivity
[4]
  alleviating effect 6 hours after administration: the effect essentially disappeared
  time of maximum alleviating effect: 1 h
[5]
  time after which the pain alleviation effect decreased: 1.5 to 2 h
